Data: US20170143674A1, “Use of Glutaryl Histamine for the Treatment of Respiratory Tract Diseases” (LTD "VALENTA-INTELLEKT", priority 2011, published 2017)
Where two headings read alike, the source gives them in different places. Marks after values point to notes of the source that are not given here.

Key:
[1] = system: acute rhinosinusitis induced by intranasal administration of formalin; format: in vivo, rat; settings: for Mucopurulent catarrh (number of rats) / Mucous catarrh (number of rats) / Without changes (number of rats, mucous membrane in the nasal passages, macroscopic): n = 10; for The number of caliciform cells within 1 mm of the mucosal membrane of the nasal septum: M ± m
Description: Activity of glutaryl histamine was studied in an experimental model of acute rhinosinusitis (ARS).
Administration of 20 μl of 7.5% formalin to the rat nasal passages leads to the development of a clinical picture similar to the symptoms of acute rhinosinusitis in a human.
The tested medicament and reference medicaments were administered for 7 days after administration of 7.5% formalin. Normal saline solution was used as placebo. The animals were subjected to euthanasia on day 8 after induction of experimental acute rhinosinusitis by method of air embolism. During necropsy, nasal passages of all animals were sampled. The obtained material was placed into 10% neutral-buffered formalin for further histological analysis.
The mucous and submucous membranes of both nasal passages (respiratory and olfactory regions) of the experimental animals were subjected to a morphological analysis of the specific activity of glutaryl histamine.
After the clinical phase of the experiment, the material derived from the animals was subjected to the standard treatment to prepare histological paraffin sections with a thickness of 3 to 5 μm. The sections were stained with hematoxylin and eosin for a microscopic study. Comparison and histological analysis of changes were performed versus the group of intact rats.
The main pathological processes inherent in experimental acute rhinosinusitis, such as vascular congestion in mucous membrane, hyperplasia and necrosis of the epithelium, the number of caliciform cells within 1 mm of the mucous membrane in the nasal septum, were evaluated by a semi-quantitative method to evaluate the degree of pathophysiological changes in histological, histochemical and morphological studies.
The microscopic analysis of exudative disorder developed in rats with acute rhinitis was aimed at measuring the number of caliciform cells comprising acidic mucus (Table 3).

[2] = system: acute respiratory distress syndrome (ARDS); test: ARDS model, multiple-dose intravenous LPS (LD30); format: in vivo, rat
Description: (§1) Since an intravenous administration of lipopolysaccharide (LPS) to animals is one of the most acceptable models for studying the pathogenesis, pathomorphological changes and consequences of acute respiratory distress syndrome, this model was used in this example. Tested medicament glutaryl histamine was administered for 9 days after the first administration of LPS, i.e. glutaryl histamine was administered for 12 days in total (3 days before the induction of ARDS and 9 days during and after the induction). The exception was dexamethasone since, according to the literature data and the information leaflet, long-time administration of steroidal anti-inflammatory agents can cause severe side effects. For this reason, dexamethasone was administered according to the following schedule: 49, 24 and 1 hour before the induction of ARDS in a dose of 5 mg/kg, for 3 days after the first injection of LPS in the same dose; the medicament was withdrawn by a gradual dose reduction for 3 days. Thus, dexamethasone was administered 9 times.
At this step, animals were administered LPS at more lower dose, but for longer time period. They were received 2 mg/kg on days 1 and 2, and 3 and 4 mg/kg on days 3 and 4, respectively. The maximum mortality rate, similarly to the single-dose administration of LD70, was on the first day. On eighth day, mortality reached 33%.
The second step of the experiment comprises the evaluation of both the mortality rate of the animals with calculation of the protective index and narrower indexes used for determination of a specific protection provided by glutaryl histamine in ARDS. As was disclosed above, a lower dose of LPS (LD30) was used at the second stage. In addition, LPS was administered every day for 4 days. This method of administration was aimed at achieving the maximum disorder exactly in the lung for subsequent evaluation of possible protective action of glutaryl histamine.

LPS-induced tonsillitis = LPS-induced tonsillitis model (E. coli LPS into cervical lymph node); format: in vivo; settings: for Area of germinal centers of lymphoid follicles in affected lymph nodes / Weight difference between affected and intact lymph nodes: M ± m
Description: This example is aimed at evaluating the activity of glutaryl histamine on experimental model of tonsillitis. LPS-induced tonsillitis is one of the most adequate models for the study of the pathogenesis, pathomorphological changes and action of pharmacological medicaments on the course of this disease.
Tonsillitis was induced under anesthesia by administration of a solution of E. coli lipopolysaccharide (LPS) (Sigma) in normal physiological solution in a dose of 20 μg/kg, by 10 μl to the right upper lymph node (Inn. Cervicales superficiales). After administration, the lymph nodes were put under superficial neck muscles and then the skin was stitched. The wound was treated with streptocide. The animal was placed into a post-operation cage.
The tested medicament was administered once daily in a given dose strictly at the stated time for three days before the induction of tonsillitis and 10 days after. Normal saline solution was used as placebo.
Immediately after euthanasia, the animals were subjected to necropsy, the affected and intact lymph nodes were removed and weighed.
The lymph nodes derived from the half of animals from each group were being frozen after removal in a refrigerating chamber at −25° C. for 72 hours. Then the lymph nodes were lyophilized.
In a half of animals from each group (7), the affected lymph nodes were subjected to histological analysis. After euthanasia, intact and affected lymph nodes were removed from each animal. […] Sections with a thickness of 4 to 6 μm were prepared from the paraffin blocks, stained with hematoxylin and eosin to reveal typical pathological processes and study required parameters using light-optical microscope Leica DM LS (magnification 200× and 400×).
Weights of intact and affected lymph nodes were compared and the nodes also were lyophilized to evaluate an effect of the medicaments on the swelling degree and adequacy of the model of tonsillitis.
The protein-synthetic function of the liver and a systemic effect of the medicaments on organism were evaluated in total protein (TP) analysis.

[3] = system: acute respiratory distress syndrome (ARDS); test: ARDS model, single intravenous LPS 7.5 mg/kg; format: in vivo, rat; settings: Dexamethasone 5 mg/kg
Description: as §1
The mortality rate among the animals administered LPS in an intravenous dose of 7.5 mg/kg was 70% for 8 days. The most of them (60%) died on the first day, in particular, from 4 to 12-16 hours after the injection of LPS. The mortality rate among the animals administered glutaryl histamine was different from the rate in animals treated with dexamethasone; however, most of them also died on the first day, about in the same time period (Table 11).

[4] = Diclofenac 11 mg/kg, listed as diclofenac

## C[C@@H]1C[C@H]2[C@@H]3CCC4=CC(=O)C=C[C@]4(C)[C@@]3(F)[C@@H](O)C[C@]2(C)[C@@]1(O)C(=O)CO [Dexamethasone, dexamethasone, reference compound]
[1]; Dexamethasone 5 mg/kg
  Mucopurulent catarrh (number of rats): 0
  Mucous catarrh (number of rats): 1
  Without changes (number of rats, mucous membrane in the nasal passages, macroscopic): 9
[1]; Dexamethasone (5 mg/kg)
  The number of caliciform cells within 1 mm of the mucosal membrane of the nasal septum: 15.6 ± 0.6
[2]; Dexamethasone 5 mg/kg
  IP (%) (protective index): 62.5%
  M (%) (mortality rate): 12.5%
  S (%) (survival rate): 87.5%
[2]; Dexamethasone 5 mg/kg, total number 24
  Died: 3
[2]; dexamethasone (5 mg/kg), first three days
  mortality rate for the first three days: 0%
LPS-induced tonsillitis; Dexamethasone 5 mg/kg
  Mortality rate (%): 64%
  The number of died animals/initial number of animals in a group: 9/14
LPS-induced tonsillitis; Dexamethasone (5 mg/kg)
  Area of germinal centers of lymphoid follicles in affected lymph nodes: 0.016 ± 0.004* ** mm^2
  Weight difference between affected and intact lymph nodes: 15.6 ± 1.8 mg
[3]
  IP (%) (protective index): 28.6%
  S (%) (survival rate): 50%
[3]; 8 days
  Me (%) (mortality rate): 50%
[3]; total number 10
  Died: 5

## O=C(O)Cc1ccccc1Nc1c(Cl)cccc1Cl [Diclofenac, diclofenac, reference compound]
[1]; Diclofenac 11 mg/kg
  Mucopurulent catarrh (number of rats): 7
  Mucous catarrh (number of rats): 3
  Without changes (number of rats, mucous membrane in the nasal passages, macroscopic): 0
[1]; [4]
  Mucopurulent catarrh (number of rats): four
  Mucous catarrh (number of rats): three
[1]; Diclofenac (11 mg/kg)
  The number of caliciform cells within 1 mm of the mucosal membrane of the nasal septum: 31.8 ± 1.9* **
LPS-induced tonsillitis; Diclofenac (11 mg/kg)
  Mortality rate (%): 29%
  The number of died animals/initial number of animals in a group: 4/14
  Area of germinal centers of lymphoid follicles in affected lymph nodes: 0.074 ± 0.007* mm^2
  Weight difference between affected and intact lymph nodes: 16.3 ± 1.4 mg
